Test system: 648629-189-R-J1-PDC spheroids with HUVEC/MSC, viability
Assay: Anticancer human tumor 648629-189-R-J1-PDC patient-derived bladder carcinoma cell line growth inhibition [PI3K]
Conditions: for IC50: curve of first compound; for viability, T/C: stronger effect = lower value; active = viability on the fitted dose curve at most 10% of control; inactive = the rest
How it was run: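 Stroma-containing spheroids: tumor line, pooled-donor HUVEC, hMSC. Treatments: targeted agents with PI3K inhibitors. Dosing: clinically relevant, half-log spacing, 10 microM ceiling without known Cmax. Read-out: cell viability.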

[1] = second compound 0.0316 µM, first compound 0.000316 µM
[2] = second compound 0.0316 µM, first compound 0.001 µM
[3] = second compound 0.0316 µM, first compound 0.00316 µM
[4] = second compound 0.0316 µM, first compound 0.01 µM
[5] = second compound 0.0316 µM, first compound 0.0316 µM
[6] = second compound 0.0316 µM, first compound 0.1 µM
[7] = second compound 0.1 µM, first compound 0.000316 µM
[8] = second compound 0.1 µM, first compound 0.001 µM
[9] = second compound 0.1 µM, first compound 0.00316 µM
[10] = second compound 0.1 µM, first compound 0.01 µM
[11] = second compound 0.1 µM, first compound 0.0316 µM
[12] = second compound 0.1 µM, first compound 0.1 µM
[13] = second compound 0.316 µM, first compound 0.000316 µM
[14] = second compound 0.316 µM, first compound 0.001 µM
[15] = second compound 0.316 µM, first compound 0.00316 µM
[16] = second compound 0.316 µM, first compound 0.01 µM
[17] = second compound 0.316 µM, first compound 0.0316 µM
[18] = second compound 0.316 µM, first compound 0.1 µM
[19] = second compound 1 µM, first compound 0.000316 µM
[20] = second compound 1 µM, first compound 0.001 µM
[21] = second compound 1 µM, first compound 0.00316 µM
[22] = second compound 1 µM, first compound 0.01 µM
[23] = second compound 1 µM, first compound 0.0316 µM
[24] = second compound 1 µM, first compound 0.1 µM
[25] = second compound 3.16 µM, first compound 0.000316 µM
[26] = second compound 3.16 µM, first compound 0.001 µM
[27] = second compound 3.16 µM, first compound 0.00316 µM
[28] = second compound 3.16 µM, first compound 0.01 µM
[29] = second compound 3.16 µM, first compound 0.0316 µM
[30] = second compound 3.16 µM, first compound 0.1 µM
[31] = second compound 10 µM, first compound 0.000316 µM
[32] = second compound 10 µM, first compound 0.001 µM
[33] = second compound 10 µM, first compound 0.00316 µM
[34] = second compound 10 µM, first compound 0.01 µM
[35] = second compound 10 µM, first compound 0.0316 µM
[36] = second compound 10 µM, first compound 0.1 µM
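Note: spheroids exposed to agents for seven days before reading.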
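Throughout, for viability, T/C: percent of vehicle control luminescence where 100% = DMSO treated spheroids.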

CC(=O)c1c(C)c2cnc(Nc3ccc(N4CCNCC4)cn3)nc2n(C2CCCC2)c1=O + Cc1nc(NC(=O)N2CCCC2C(N)=O)sc1-c1ccnc(C(C)(C)C(F)(F)F)c1
> 100 nM: IC50 (second compound 0.0316 µM) | IC50 (second compound 0.1 µM) | IC50 (second compound 0.316 µM) | IC50 (second compound 1 µM) | IC50 (second compound 3.16 µM)
< 0.316 nM: IC50 (second compound 10 µM)
inactive: viability, T/C [1] 91.4% | viability, T/C [2] 91.7% | viability, T/C [3] 100% | viability, T/C [4] 100% | viability, T/C [5] 96.6% | viability, T/C [6] 101% | viability, T/C [7] 91.1% | viability, T/C [8] 96.9% | viability, T/C [9] 93.7% | viability, T/C [10] 91.9% | viability, T/C [11] 107% | viability, T/C [12] 91.2% | viability, T/C [13] 80.9% | viability, T/C [14] 86.1% | viability, T/C [15] 85.1% | viability, T/C [16] 84.1% | viability, T/C [17] 90.2% | viability, T/C [18] 85.3% | viability, T/C [19] 72.4% | viability, T/C [20] 68.1% | viability, T/C [21] 73.7% | viability, T/C [22] 71.7% | viability, T/C [23] 70.5% | viability, T/C [24] 71.9% | viability, T/C [25] 52.6% | viability, T/C [26] 53.2% | viability, T/C [27] 61.6% | viability, T/C [28] 54.9% | viability, T/C [29] 54.6% | viability, T/C [30] 54.6% | viability, T/C [31] 36.5% | viability, T/C [32] 44.9% | viability, T/C [33] 38.9% | viability, T/C [34] 30.1% | viability, T/C [35] 44.1% | viability, T/C [36] 34%

CC(C)n1nc(-c2ccc3oc(N)nc3c2)c2c(N)ncnc21 + Cc1nc(NC(=O)N2CCCC2C(N)=O)sc1-c1ccnc(C(C)(C)C(F)(F)F)c1
56.7 nM: IC50 (second compound 0.1 µM)
58.6 nM: IC50 (second compound 0.0316 µM)
11 nM: IC50 (second compound 3.16 µM)
33.3 nM: IC50 (second compound 1 µM)
52.7 nM: IC50 (second compound 0.316 µM)
inactive: viability, T/C [1] 111% | viability, T/C [2] 95.1% | viability, T/C [3] 109% | viability, T/C [4] 97.5% | viability, T/C [5] 70.2% | viability, T/C [6] 32.6% | viability, T/C [7] 102% | viability, T/C [8] 94.9% | viability, T/C [9] 91.7% | viability, T/C [10] 84.6% | viability, T/C [11] 68% | viability, T/C [12] 32.8% | viability, T/C [13] 87.3% | viability, T/C [14] 83.5% | viability, T/C [15] 83.5% | viability, T/C [16] 82% | viability, T/C [17] 66.1% | viability, T/C [18] 29.1% | viability, T/C [19] 80.9% | viability, T/C [20] 85.2% | viability, T/C [21] 74.2% | viability, T/C [22] 64.5% | viability, T/C [23] 53.9% | viability, T/C [24] 23.2% | viability, T/C [25] 63.9% | viability, T/C [26] 54.8% | viability, T/C [27] 60.5% | viability, T/C [28] 48.6% | viability, T/C [29] 40.7% | viability, T/C [30] 19.1% | viability, T/C [31] 41.4% | viability, T/C [32] 37.5% | viability, T/C [33] 37.5% | viability, T/C [34] 33.6% | viability, T/C [35] 27.7% | viability, T/C [36] 9.34%
< 0.316 nM: IC50 (second compound 10 µM)

Reference: PubChem BioAssay AID1963974 (Molecular Pharmacology Branch, DTP, NCI, 2024)
